Assay results published in BindingDB's records for doi:10.1016/j.bmcl.2004.04.105 (Institut Henri Beaufour, 2004).

Columns and labels:
[1] = Inhibitory activity against on calpain in C6 glial cells
[2] = Inhibitory activity against on calpain 1 in C6 glial cells

**Q.** Which IC50 [1] does the source give for `CC(C)C[C@H](NC(=O)c1ccc2c(c1)Nc1ccccc1S2)C(=O)N[C@H]1CCOC1O` (some centres not stated) here?
**A.** 23.5 µM

**Q.** Which IC50 [2] does the source give for `CC(=O)OC1OCC[C@@H]1NC(=O)[C@H](CC(C)C)NC(=O)c1ccc2c(c1)Nc1ccccc1S2` (some centres not stated) here?
**A.** 13.3 µM
